Test results published in BindingDB's records for doi:10.7270/Q2N014XN (Srmlsc, 2007).
Where a name gives a salt, the structure may show the parent alone.

These compounds were tested against T1, Diphosphomevalonate decarboxylase (Streptococcus pneumoniae serotype 2 (strain D39 / NCTC 7466), UniProt A0A0H2ZN59) (assay: diphosphomevalonate decarboxylase inhibition dose curves – biochemical, PK/LDH-coupled NADH fluorescence, hexokinase coupling counter-screen, dose response (AID 550)). Details: not given.
T1 sequence (A0A0H2ZN59 whole entry): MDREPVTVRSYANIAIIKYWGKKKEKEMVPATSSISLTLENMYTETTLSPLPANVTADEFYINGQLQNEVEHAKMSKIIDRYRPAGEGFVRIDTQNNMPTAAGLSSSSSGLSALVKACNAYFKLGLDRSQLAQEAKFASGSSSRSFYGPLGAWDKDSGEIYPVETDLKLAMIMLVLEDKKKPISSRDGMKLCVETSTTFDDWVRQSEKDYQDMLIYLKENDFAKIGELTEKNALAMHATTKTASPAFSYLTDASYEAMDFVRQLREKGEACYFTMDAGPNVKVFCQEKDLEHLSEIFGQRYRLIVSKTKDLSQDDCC

Question: How did the IC50 turn out when `COC(=O)c1cc(OC)c(OC)cc1NC(=O)c1oc2ccccc2c1C` [4,5-dimethoxy-2-[(3-methylbenzofuran-2-carbonyl)amino]benzoic acid methyl ester] was run?
Answer: The IC50 was > 10000 µM.

Question: How did the IC50 turn out when `CCOC(=O)CC(=O)CSc1ccc2nnc(-c3ccc(C)cc3)n2n1` [3-keto-4-[[3-(p-tolyl)-[1,2,4]triazolo[4,3-b]pyridazin-6-yl]thio]butyric acid ethyl ester] was run?
Answer: The IC50 was 287 µM.

Question: For `COc1ccc2nc3oc(C(=O)NCc4cccs4)cc3cc2c1` [6-methoxy-N-(2-thenyl)furo[2,3-b]quinoline-2-carboxamide], which IC50 is on record?
Answer: Its IC50 is 13.9 µM.

Question: With `COc1ccc(C2CC(c3cccc(C)c3)n3nc(N)nc3N2)cc1` (stereo unspecified) [5-(4-methoxyphenyl)-7-(3-methylphenyl)-1,5,6,7-tetrahydro-[1,2,4]triazolo[1,5-a]pyrimidin-2-amine] as the compound, how does the IC50 read?
Answer: Its IC50 is > 10000 µM.

Question: Which IC50 does the source give for `O=C(Nc1ccc2nc(-c3ccco3)c(-c3ccco3)nc2c1)N1CCCCCC1` here?
Answer: The IC50 was 46.5 µM.

Question: With `CCOc1ccc(C(=O)O)cc1OC` [4-ethoxy-3-methoxy-benzoic acid] as the compound, how does the IC50 read?
Answer: The IC50 was > 10000 µM.

Question: For `O=C(Nc1ccc2nn(-c3ccccc3)nc2c1)c1ccc(Br)o1` [5-bromanyl-N-(2-phenylbenzotriazol-5-yl)furan-2-carboxamide], which IC50 is on record?
Answer: The IC50 was 32.6 µM.

Question: Which IC50 does the source give for `COc1cc(NC(=O)c2ccco2)c(OC)cc1NC(=O)CCC(=O)Nc1cc(C)ccc1C` [MLS000072545] here?
Answer: The IC50 was > 10000 µM.

Question: Which IC50 does the source give for `CCOc1ccc(N2CC(C(=O)OC)CC2=O)cc1` (stereo unspecified) [1-(4-ethoxyphenyl)-5-oxo-3-pyrrolidinecarboxylic acid methyl ester] here?
Answer: The IC50 was > 10000 µM.

Question: With `COc1ccc(-c2nsc3c(N4CCN(C(=O)c5ccco5)CC4)ncnc23)cc1` [2-furanyl-[4-[3-(4-methoxyphenyl)-7-isothiazolo[4,5-d]pyrimidinyl]-1-piperazinyl]methanone] as the compound, how does the IC50 read?
Answer: The IC50 was 131 µM.

Question: `O=c1c2ccccc2sn1-c1ccc(S(=O)(=O)N2CCCCC2)cc1` [2-(4-piperidin-1-ylsulfonylphenyl)-1,2-benzothiazol-3-one] was tested. Which IC50 did it give?
Answer: Its IC50 is 2.15 µM.

Question: With `O=C(c1noc2c1CCCC2)N1CCCCC1` [1-piperidinyl(4,5,6,7-tetrahydro-1,2-benzoxazol-3-yl)methanone] as the compound, how does the IC50 read?
Answer: The IC50 was > 10000 µM.

Question: How did the IC50 turn out when `Cc1ccccc1Cn1cc(NC(=O)c2cc3nc(-c4ccco4)cc(C(F)(F)F)n3n2)cn1` [5-(2-furanyl)-N-[1-[(2-methylphenyl)methyl]-4-pyrazolyl]-7-(trifluoromethyl)-2-pyrazolo[1,5-a]pyrimidinecarboxamide] was run?
Answer: Its IC50 is 31.4 µM.

Question: For `COc1cc(NC(=O)c2cccs2)c(C(=O)OCC(=O)NCc2ccco2)cc1OC` [4,5-dimethoxy-2-(2-thenoylamino)benzoic acid [2-(2-furfurylamino)-2-keto-ethyl] ester], which IC50 is on record?
Answer: Its IC50 is > 10000 µM.

Question: Which IC50 does the source give for `COc1cccc(C(=O)Nc2ccc(NC(=O)C(C)C)nc2)c1` [3-methoxy-N-[6-(2-methylpropanoylamino)pyridin-3-yl]benzamide] here?
Answer: Its IC50 is > 10000 µM.

Question: For `O=C(NCc1cccnc1)c1ccc2c(=O)n(CCCN3CCCC3=O)c(=S)[nH]c2c1` [4-oxidanylidene-3-[3-(2-oxidanylidenepyrrolidin-1-yl)propyl]-N-(pyridin-3-ylmethyl)-2-sulfanylidene-1H-quinazoline-7-carboxamide], which IC50 is on record?
Answer: The IC50 was > 10000 µM.

Question: `Cc1cccc(Nc2nnc(S)s2)c1C` [5-(2,3-dimethylanilino)-3H-1,3,4-thiadiazole-2-thione] was tested. Which IC50 did it give?
Answer: The IC50 was 188 µM.

Question: `COc1ccc(-n2nc(C(=O)NCc3ccco3)c3c4ccccc4n(C)c3c2=O)cc1Cl` [3-(3-chloranyl-4-methoxy-phenyl)-N-(furan-2-ylmethyl)-5-methyl-4-oxidanylidene-pyridazino[4,5-b]indole-1-carboxamide] was tested. Which IC50 did it give?
Answer: Its IC50 is 15.1 µM.

Question: Which IC50 does the source give for `O=C(CSc1nnc2ccccn12)Nc1ccccc1C(=O)NC1CC1` [MLS000056825] here?
Answer: Its IC50 is > 10000 µM.

Question: For `Cc1nc(NCCN)c(C#N)c2c1COC(C)(C)C2` [6-(2-aminoethylamino)-3,3,8-trimethyl-1,4-dihydropyrano[3,4-c]pyridine-5-carbonitrile], which IC50 is on record?
Answer: Its IC50 is 73.8 µM.

Question: For `Cc1cc(C(=O)CSc2nnnn2-c2ccc(Cl)cc2)c(C)n1CC1CCCO1` (stereo unspecified) [2-[1-(4-chlorophenyl)tetrazol-5-yl]sulfanyl-1-[2,5-dimethyl-1-(oxolan-2-ylmethyl)pyrrol-3-yl]ethanone], which IC50 is on record?
Answer: Its IC50 is > 10000 µM.

Question: How did the IC50 turn out when `Cc1cc(O)c(C=Nc2cccc(Cl)c2)c(=O)o1` [(3Z)-3-[(3-chloroanilino)methylene]-6-methyl-pyran-2,4-quinone] was run?
Answer: The IC50 was > 10000 µM.

Question: Which IC50 does the source give for `Cn1c(SCC(=O)N2CCOCC2)nnc1-c1ccc(NC(=O)c2ccccc2F)cc1` [2-fluoranyl-N-[4-[4-methyl-5-(2-morpholin-4-yl-2-oxidanylidene-ethyl)sulfanyl-1,2,4-triazol-3-yl]phenyl]benzamide] here?
Answer: Its IC50 is > 10000 µM.

Question: How did the IC50 turn out when `CCOC(=O)c1c(Nc2nc(C)c(C(=O)NC)s2)sc(C)c1C` [4,5-dimethyl-2-[[4-methyl-5-(methylcarbamoyl)-2-thiazolyl]amino]-3-thiophenecarboxylic acid ethyl ester] was run?
Answer: The IC50 was > 10000 µM.

Question: How did the IC50 turn out when `CCN(CC)S(=O)(=O)c1ccc(NC(=O)c2cccc3c2C(=O)N(CCOC)C3)cc1` [MLS000045293] was run?
Answer: Its IC50 is 50.5 µM.

Question: For `CC(C)/N=c1/cc2n(-c3ccc(Cl)cc3)c3ccccc3nc-2cc1Nc1ccc(Cl)cc1`, which IC50 is on record?
Answer: Its IC50 is 2.89 µM.

Question: For `COc1ccccc1N1CCN(C(=O)CSc2nnc(NC(=O)c3ccco3)s2)CC1` [Furan-2-carboxylic acid (5-{2-[4-(2-methoxy-phenyl)-piperazin-1-yl]-2-oxo-ethylsulfanyl}-[1,3,4]thiadiazol-2-yl)-amide], which IC50 is on record?
Answer: Its IC50 is 262 µM.

Question: `Cc1c(C(=O)NCC2CCCO2)sc2nc(-c3ccccc3)cn12` (stereo unspecified) [3-methyl-6-phenyl-N-(tetrahydrofurfuryl)imidazo[2,1-b]thiazole-2-carboxamide] was tested. Which IC50 did it give?
Answer: The IC50 was > 10000 µM.

Question: For `CCOC(=O)c1c(C)n(OCc2ccccc2)c2ccc3c(n[o+]n3[O-])c12` [6-benzoxy-7-methyl-3-oxido-pyrrolo[2,3-g][2,1,3]benzoxadiazol-3-ium-8-carboxylic acid ethyl ester], which IC50 is on record?
Answer: Its IC50 is > 10000 µM.

Question: How did the IC50 turn out when `COCCn1nnnc1CN(Cc1cccnc1)Cc1cc2cc(OC)ccc2[nH]c1=O` [6-methoxy-3-[[[1-(2-methoxyethyl)-5-tetrazolyl]methyl-(3-pyridinylmethyl)amino]methyl]-1H-quinolin-2-one] was run?
Answer: The IC50 was > 10000 µM.

Question: For `CCOC(=O)N1CCC(NC(=O)CSc2cc(=O)n(C)c3ccccc23)CC1` [4-[[2-[(1-methyl-2-oxo-4-quinolinyl)thio]-1-oxoethyl]amino]-1-piperidinecarboxylic acid ethyl ester], which IC50 is on record?
Answer: The IC50 was 399 µM.

Question: With `O=c1c2cc(N3CCOCC3)ccc2[nH]c(=S)n1CCCN1CCN(c2ccccc2F)CC1` [SMR000030978] as the compound, how does the IC50 read?
Answer: The IC50 was 58.7 µM.

Question: With `CC1(C)CC(=O)c2cc(OCC(=O)N3CCN(c4ccccc4F)CC3)ccc2O1` [6-[2-[4-(2-fluorophenyl)-1-piperazinyl]-2-oxoethoxy]-2,2-dimethyl-3,4-dihydro-2H-1-benzopyran-4-one] as the compound, how does the IC50 read?
Answer: The IC50 was 37 µM.

Question: How did the IC50 turn out when `COc1ccc(C(O)Cn2c(=N)n(CCCN(C)C)c3ccccc32)cc1` (stereo unspecified) [2-[2-azanylidene-3-[3-(dimethylamino)propyl]benzimidazol-1-yl]-1-(4-methoxyphenyl)ethanol;hydrochloride] was run?
Answer: Its IC50 is > 10000 µM.

Question: `COc1cccc2cc3c(=O)n(-c4ccccc4)nc-3oc12` [8-methoxy-2-phenyl-3-[1]benzopyrano[2,3-c]pyrazolone] was tested. Which IC50 did it give?
Answer: Its IC50 is > 10000 µM.

Question: With `Nc1c(S(=O)(=O)c2cccs2)c2nc3ccccc3nc2n1Cc1ccc2c(c1)OCO2` [1-(1,3-benzodioxol-5-ylmethyl)-3-thiophen-2-ylsulfonyl-2-pyrrolo[3,2-b]quinoxalinamine] as the compound, how does the IC50 read?
Answer: The IC50 was 31.9 µM.

Question: For `COCCn1cc(C(=O)NCCCN2CCC(C)CC2)c2c3ccccc3n(C)c2c1=O` [1-keto-2-(2-methoxyethyl)-9-methyl-N-[3-(4-methylpiperidino)propyl]-beta-carboline-4-carboxamide], which IC50 is on record?
Answer: Its IC50 is 27.2 µM.

Question: With `CCCc1nnc(NC(=O)CN2CCOCC2)s1` [2-(4-morpholinyl)-N-(5-propyl-1,3,4-thiadiazol-2-yl)acetamide;hydrochloride] as the compound, how does the IC50 read?
Answer: The IC50 was > 10000 µM.

Question: For `CCCN(CC(=O)c1cc(C)n(C)c1C)S(=O)(=O)c1cccc(C(F)(F)F)c1` [MLS000055141], which IC50 is on record?
Answer: The IC50 was > 10000 µM.

Question: For `COc1ccc(-c2nc(C(N)=O)c3[nH]c(=O)n(-c4cccc(C)c4)c3n2)c(OC)c1` [SMR000016861], which IC50 is on record?
Answer: Its IC50 is 128 µM.

Question: For `COc1ccc(-c2cc(C(F)(F)F)nc(SCCC(=O)Nc3cc(C)on3)n2)cc1` [3-[4-(4-Methoxy-phenyl)-6-trifluoromethyl-pyrimidin-2-ylsulfanyl]-N-(5-methyl-isoxazol-3-yl)-propionamide], which IC50 is on record?
Answer: Its IC50 is > 10000 µM.

Question: Which IC50 does the source give for `COc1ccccc1NC(=O)CSc1nc(O)cc(=O)n1-c1ccccc1OC` [N-(2-methoxyphenyl)-2-[1-(2-methoxyphenyl)-6-oxidanyl-4-oxidanylidene-pyrimidin-2-yl]sulfanyl-ethanamide] here?
Answer: Its IC50 is > 10000 µM.

Question: `Cn1ncc2c(Nc3ccc(-c4ccccc4)cc3)ncnc21` [(1-methylpyrazolo[3,4-d]pyrimidin-4-yl)-(4-phenylphenyl)amine] was tested. Which IC50 did it give?
Answer: Its IC50 is 53.7 µM.

Question: For `Cc1nc2cc(NC(=O)NCc3ccco3)ccc2n1C` [1-(1,2-dimethyl-5-benzimidazolyl)-3-(2-furanylmethyl)urea], which IC50 is on record?
Answer: The IC50 was > 10000 µM.

Question: For `CC(=O)NCCn1c(SCc2cc(=O)n3cc(Cl)ccc3n2)nc2ccccc2c1=O` [MLS000095256], which IC50 is on record?
Answer: The IC50 was 70.6 µM.

Question: With `O=C1C(Cl)=C(NCC2CCCO2)C(=O)N1Cc1ccccc1` (stereo unspecified) [1-Benzyl-3-chloro-4-[(tetrahydro-furan-2-ylmethyl)-amino]-pyrrole-2,5-dione] as the compound, how does the IC50 read?
Answer: Its IC50 is > 10000 µM.

Question: For `CC1Cc2nc(SCC(=O)Nc3ccc4c(c3)OCO4)n(CCc3ccccc3)c(=O)c2S1` (stereo unspecified) [MLS000101671], which IC50 is on record?
Answer: The IC50 was > 10000 µM.

Question: With `CN(C)C(=O)Nc1cnc2ccccc2c1` [1,1-dimethyl-3-(3-quinolinyl)urea] as the compound, how does the IC50 read?
Answer: The IC50 was > 10000 µM.

Same assay, conditions: inactive by the depositor's call

Question: For `Nc1nc2c(s1)CCc1c-2cnn1-c1ccccc1` [MLS000085948], which IC50 is on record?
Answer: The IC50 was 9.51 µM.

Question: For `Cc1ccc(-c2cc(C(F)(F)F)n3ncc(C(=O)NCc4ccco4)c3n2)cc1` [MLS000109298], which IC50 is on record?
Answer: The IC50 was 59.2 µM.

Question: Which IC50 does the source give for `O=c1cccccc1NCc1ccccc1` [2-(benzylamino)cyclohepta-2,4,6-trien-1-one] here?
Answer: Its IC50 is 278 µM.
